Data: a melting point compilation (Tetko et al.; mined from patent text by program, amines drawn as free bases though some values may be those of a salt)

Row | SMILES | melting point [°C]
1 | CC(=O)Nn1cnc2c(Br)csc2c1=O | 273
2 | ClCc1ccc(-c2nnc3n2-c2cccnc2Nc2ccccc2-3)cc1 | 260 to 262
3 | CCOC(=O)c1nc(-c2ccc([N+](=O)[O-])cc2)[nH]c1-c1ccc(N(C)C)cc1 | 240 to 242
4 | ClC(=NNc1ccccc1)c1ccc(Cl)cc1Cl | 88.5 to 89.5
5 | COC(=O)Cc1cc2c(s1)-n1c(C)nnc1C(C)N=C2c1ccccc1Cl (stereo unspecified) | 105 to 106
6 | COc1ccc(Cc2cccc(C(O)(C3=NCCCN3)c3ccccc3)c2)cc1 (stereo unspecified) | 92
7 | Cc1cc(Cl)nn2c(-c3ccnc4c3ccn4S(=O)(=O)c3ccccc3)c(-c3ccc(F)cc3)nc12 | 226 to 228
8 | CN(C)C(=O)Nc1cc(O)cc(O)c1 | 230
9 | CN(C)C(N)=Nc1ccccc1N1CCOCC1 | 143 to 144
10 | CN1CCN(CCCCNc2ncc3cc(-c4c(Cl)cccc4Cl)c(=O)n(C)c3n2)CC1 | 130 to 132
11 | COC(=O)c1ccccc1C1=NC(C)(C(C)C)C(=S)N1 (stereo unspecified) | 134 to 138
12 | CCc1cc(S(=O)(=O)C(Br)(Br)Br)ccc1C(N)=O | 175 to 177
13 | O=C1CCCCCC1=CC(=O)c1ccccc1 | 91 to 92
14 | Cc1cc(SCc2ccc3cn(-c4ccc(C(F)(F)F)cc4)nc3c2)ccc1OCC(=O)O | 142 to 144
15 | COc1ccc(N2CCc3ccccc32)c([N+](=O)[O-])c1 | 88 to 90
16 | CCOc1cc2c(cc1S(=O)(=O)NC(=S)NC)C(CNC(=O)N1CC(C)=C(CC)C1=O)CCO2 (stereo unspecified) | 178
17 | Cc1c(C(=O)Nc2ccc(N3CCC(NCCO)CC3)c(C#N)c2)cnn1-c1ccc(C(F)(F)F)cc1 | 202
18 | CCCCCNC12CN3CN(CN(C3)C1)C2 | 119 to 120
19 | Cc1cc(NC(=O)C(=O)N(C)C)cc(C)c1S(=O)(=O)C[N+](=O)[O-] | 171 to 172
20 | Nc1nc(O)c2c(n1)NCC(CCc1c[nH]c(C(=O)O)c1)C2 (stereo unspecified) | > 260

Row | SMILES | melting point [°C]
21 | CCCCCCc1c(C(C)C)nc(C(C)C)c(CO)c1-c1ccc(F)cc1 | 93 to 95
22 | OCC=Cc1ccsc1 | 58 to 60
23 | O=C(c1ccccc1F)c1ccc(O)c(Cl)c1Cl | 128 to 131
24 | O=C(CNc1ccc(F)cc1)N1CCN2C(=O)OC(c3ccccc3)(c3ccccc3)C2C1 (stereo unspecified) | 203 to 204
25 | CCOC(=O)c1c(C)cc2nc(C(C)C)n(-c3ccccc3Cl)c(=O)c2c1C | 115 to 116
26 | CC(=O)/C=C(\C)c1ccc(C2CCCCC2)c(Br)c1 | 52 to 53
27 | Nc1ccccc1CCCC(C(=O)O)N1C(=O)c2ccccc2C1=O (stereo unspecified) | 258 to 260
28 | COc1ccc(CCC#N)cc1OC | 45 to 48
29 | Cc1c(C(=O)Nc2ccc(N3CCC(N4CCOCC4)CC3)cc2C#N)cnn1-c1ccc(Cl)cc1 | 212 to 213
30 | CN1C(=O)[C@H](NC(=O)CCc2cccc(C(F)(F)F)c2)N=C(c2ccccc2)c2ccccc21 | 135 to 136
31 | CCOC(=O)c1cc(=O)c2cc(N3CCOCC3)c(=O)ccc2n1C | 170 to 172
32 | Cn1c(=O)sc2cc(N3C[C@H](CN)OC3=O)ccc21 | 217
33 | CC(Cn1ncc2ccc(O)cc21)O[Si](C)(C)C(C)(C)C (stereo unspecified) | 169 to 174
34 | COc1ccc(/C=C/c2c(Cl)cncc2Cl)c2c1OCCCO2 | 118 to 120
35 | C=C(C(=O)NC1CCCCC1)c1ccccc1 | 131 to 133
36 | CC(=NOCCOc1ccc(CC2SC(=O)NC2=O)cc1)c1cccc(O)c1 (stereo unspecified) | 133 to 135
37 | COC(=O)C(Cl)(C(=O)OC)[C@@H](C[N+](=O)[O-])c1ccccc1 | 175 to 177
38 | CON(C(=O)Cc1nc2ccc(Cl)cc2o1)c1ccccc1 | 139
39 | Cc1nc(NC(=O)c2cc(F)cc(F)c2)sc1C(=O)NCc1ccccc1 | 84 to 86
40 | O=C(NC1CN2CCC1CC2)C1(O)c2ccccc2-c2ccccc21 (stereo unspecified) | 230

Row | SMILES | melting point [°C]
41 | COCN1C(C)=C(C(=O)OC)C(c2ccccc2)C(C(=O)OCOC(=O)C(C)(C)C)=C1C (single isomer, unassigned; (+)) | 80 to 81
42 | CONC1=NS(=O)(=O)c2cc(Cl)ccc2N1 | > 220
43 | O=C1CCC(=O)C(Cc2ccccc2)N1 (stereo unspecified) | 140 to 141
44 | COC(=O)COc1cccc2c(CCN=[N+]=[N-])coc12 | 95 to 97
45 | CCN(C(=O)n1nnc2cc(C)cc(C)c21)c1ccccc1 | 90
46 | CC1(C)Oc2c(N)c(Cl)cc(Cl)c2C1=O | 168 to 170
47 | CS(=O)(=O)CC(N)C1(c2ccc(Cl)cc2)CCC1 (stereo unspecified) | 134 to 135
48 | Cc1cccc(C)c1COc1cc(C(=O)O)cc2c1nc(C)n2C | 285 to 286
49 | Cc1oc2c(Br)cc(C(CCOS(C)(=O)=O)CCOS(C)(=O)=O)cc2c1C | 154 to 156
50 | CC1(C)N=C(c2ccccc2F)c2cc([N+](=O)[O-])cc(Br)c2NC1=O | 164
51 | Clc1ccc(CC(Cn2cncn2)Cn2cncn2)cc1 | 107 to 108
52 | COc1cc2c(cc1Cl)NC(=O)C2=NNc1ccc(S(N)(=O)=O)cc1 | > 250
53 | COc1cc(Br)cc2nc(SCc3ccccc3)nn12 | 80 to 82
54 | O=C(Cc1ccc(Cl)cc1)Nc1ccc(-n2nc(C(F)(F)F)cc2C(F)(F)F)cc1 | 122 to 124
55 | CCNC=C(C(=O)C=Cc1ccc(N(C)C)c(C)c1)C(=O)OC | 98 to 100
56 | CC(=O)SCC(Cc1ccccc1)NC(=O)N1CCN(c2ccc(Cl)cc2)CC1 (single isomer, unassigned; (+)) | 140
57 | CSc1nc(=O)n(C)c(=O)[nH]1 | 243 to 244
58 | CC(=O)SCCNC(=O)CCNC(=O)OCc1ccccc1 | 83 to 108
59 | NC(=O)c1cc2c(c(C(=O)O)c1)NCCC2 | 268 to 269

Now from value to compound:

Row | melting point [°C] | SMILES
60 | 197 to 198 | Cc1cc(C=NNC(N)=S)ncc1NO
61 | 138 to 143 | c1ccc(C(c2ccccc2)(c2ncccn2)n2ccnc2)cc1
62 | 169 to 171 | Cc1ccc(-c2cc(C#N)c[nH]2)cc1
63 | 92 to 94 | CC(C)(C)OC(=O)Nc1ccc(I)cc1[N+](=O)[O-]
64 | 192 to 194 | COc1cc(-c2ccccc2F)c(Cl)cc1C(=O)N1Cc2ccc(C(=O)N(CC(O)CO)CC(O)C(O)CO)n2Cc2ccccc21 (stereo unspecified)
65 | 245 to 247 | CC(O)CCNc1cc(C(=O)O)cc(S(N)(=O)=O)c1Oc1ccccc1 (stereo unspecified)
66 | 71 | CCOC(=O)c1cc(C(=O)C=CN(C)C)c(=O)[nH]c1C(=O)OCC
67 | 107 to 116 | CCCCC(=O)Nc1ccc([N+](=O)[O-])cc1
68 | 114 to 116 | Cc1cc(C(C)(C)C)c(O)c(S(N)(=O)=O)c1
69 | 143 to 145 | NC(=O)N=C1SCCN1Cc1ccccc1
70 | 95 to 100 | COC(=O)c1c(CNC(=O)c2ccc(C(=O)O)cc2)ccc2c1C(C)(C)CCC2(C)C
71 | 155 to 156 | CC1=C(c2ccc(F)c(F)c2)C(=NO)CC1
72 | 65 to 66 | Cn1ncc(Cl)c(NCCCO)c1=O
73 | 176 to 178 | O=C(O)c1ccccc1NCCCN1c2ccccc2CCc2ccc(Cl)cc21
74 | 84 | C=CCS(=O)(=O)c1ncc(Cl)cn1
75 | 74 to 77 | COc1ccc(C(=O)c2c(-c3ccc(OCCN4CCCC4)cc3)sc3cc(OCc4ccccc4)ccc23)cc1OC
76 | 180 to 182 | CN(NC1=CC(=O)NCC1)c1ccccc1
77 | 95 to 98 | CC(=O)OCCc1cccc2c(-c3ccccc3)c([N+](=O)[O-])oc12
78 | 190 to 191 | CCCn1c(COCC)nc2c(N)nc3ccc(OCc4cccnc4)cc3c21
79 | 307 | Cc1ccc(SSc2ccc(C)cc2C(=O)Nc2ccc(S(N)(=O)=O)cc2)c(C(=O)Nc2ccc(S(N)(=O)=O)cc2)c1
80 | 147 to 149 | CNC(=O)N(O)C(C)C#Cc1cccc(Oc2ccccn2)c1 (stereo unspecified)

Row | melting point [°C] | SMILES
81 | 246 to 247 | NS(=O)(=O)c1c(Cl)nc2n1CCS2(=O)=O
82 | 153 | Cc1cc(O)n(C2CCCCC2)n1
83 | 160 to 162 | CCCN1C(=O)N2CC(Cc3ccccc3)N=C2c2[nH]c(C(OC)c3ccccc3)nc21 (stereo unspecified)
84 | 109 to 110 | CN(C)CCN1c2ccccc2C(=O)N(C)c2cccnc21
85 | 171 to 174 | CCCc1cc(-c2cccs2)n[nH]c1=O
86 | 185 | O=C(C=Cc1ccc(Cl)cc1)N1CCN(c2ccc(OC[C@H]3CO[C@](Cn4cncn4)(c4ccc(Cl)cc4Cl)O3)cc2)CC1 (relative stereo)
87 | 218 | O=C(O)c1ccc(OCCCn2ccnc2)cc1
88 | 168 to 169 | CON(c1ccc([N+](=O)[O-])cc1Cl)S(=O)(=O)c1cccc([N+](=O)[O-])c1
89 | 194 | COCCNC1CCN(c2ccc(NC(=O)c3cnn(-c4ccc(Cl)cc4)c3C)cc2C#N)CC1
90 | 126 to 128 | CSC1COc2cc(NS(C)(=O)=O)c(Oc3ccccc3)cc2C1=O (stereo unspecified)
91 | 87 | CCCCc1cnc(-c2ccc(C#N)c(F)c2)nc1
92 | 169 to 171 | Clc1ccc(Cn2cc(C=Cc3cccnc3)c3cc(OCc4ccc5ccccc5n4)ccc32)cc1
93 | 68 to 70 | CNC(=O)NC(=O)C(CC1CCCC1OC1CCCCO1)c1ccc(Cl)c(Cl)c1 (stereo unspecified)
94 | 142 to 144 | COC(=O)c1c(C)nc2c(c(-c3ccccc3)nn2C)c1-c1ccc(F)cc1
95 | 183 to 185 | CCC(CC)=NNc1cc2c(nn1)CCN(C(=O)C(C)(C)C)C2
96 | 203 to 205 | Cc1cc(Cl)cc2c(=O)oc(-c3cc(Br)nn3-c3ncccc3Cl)nc12
97 | 126 to 127 | Cc1[nH]c2ccc(OCCN3CCCC3c3cccnc3)cc2c1C(=O)OCc1ccccc1 (stereo unspecified)
98 | 117 to 118 | Oc1cnccc1N=CN1CCCCCC1
99 | 75 to 90 | CCCCc1nc2c(c(C)c(C)n3nnnc23)n1CC(C)(C)NS(C)(=O)=O
100 | 190 to 192 | CC(=O)OCC1OC(n2cc(C=O)c3c(F)cccc32)C(OC(C)=O)C(OC(C)=O)C1OC(C)=O (stereo unspecified)
101 | 101 to 102 | COC(=O)C(=O)c1ccc(OCc2ccc3ccccc3c2)cc1
